Test results from patent publication US20070249545A1, “DIHYDROFOLATE REDUCTASE INHIBITION BY EPIGALLOCATECHIN GALLATE COMPOUNDS” (priority 2004, published 2007).
Read-outs that look alike come from different tables or passages of the source.

How the values were obtained:
S. maltophilia DHFR = S. maltophilia DHFR (Stenotrophomonas maltophilia, UniProt B2FPG1); type: biochemical; conditions: for Km: partially purified S. maltophilia DHFR, substrate
Method: For the DHFR extraction, S. maltophilia strain number 1, was inoculated onto fresh agar 24 h before using. Then, liquid medium was inoculated with the strain and these broth cultures were incubated at 37° C. and shaken at 100 cycles per min. Solid medium was MacConkey agar (Oxoid Ltd., Basingstoke, England). Liquid medium was Brilliant Green Bile 2% broth (Oxoid). Bacteria were grown to mid-log phase, harvested by centrifugation (1,600 rpm 30 min) and washed twice in 50 mM phosphate buffer (pH 7.0) followed each time by a new centrifugation (1,600 rpm 5 min). Cell lysis, centrifugation, and dialysis were carried out between 4 and 8° C. Fast protein liquid chromatography (FPLC) purification steps were performed at room temperature. […] After centrifugation at 36,000 rpm for 30 min to remove cell debris, the supernatant was filtered. This supernatant was brought to 40% saturation with solid ammonium sulfate under continuous stirring. After 1 h the solution was centrifuged at 35,000 rpm for 30 min and the pellet discarded. Additional ammonium sulfate was added to the clear supernatant to give 90% saturation and stirred for 1 h. After centrifugation, the precipitates were suspended in 2 ml of buffer B (10 mM potassium phosphate buffer, pH 7.4, 2 mM β-mercaptoethanol). Concentrated enzyme (2 ml samples) was loaded onto a […] gel-filtration column (Sephacryl S-75 16/60 Hi-Prep, Amersham Pharmacia Biotech Europe GmbH, Barcelona, Spain), equilibrated with buffer B and eluted at 0.5 ml/min. The active fractions were concentrated and stored at −80° C. until used.
Initial velocity inhibition experiments were carried out for the inhibition studies of S. maltophilia with TMP and EGCG. One substrate (NADPH) was held constant at saturating concentration while the other substrate (DHF) and the inhibitor (TMP or EGCG) were varied. To prevent the oxidation of EGCG the reaction mixture contained 1 mM N-acetylcysteine (Sigma). For MTX inhibition the slow development of […] inhibition was determined by continuously monitoring the disappearance of NADPH and DHF after initiation of the reaction by the addition of DHFR. Reaction mixtures contained buffer, NADPH (100 μM), DHF (20 μM), and various concentrations of MTX. The extent of recovery of enzymatic activity following inhibition induced by preincubation with DHFR inhibitors was determined as follows. DHFR was preincubated for 30 min at 25° C. in the buffer mixture containing MTX, TMP or EGCG. An aliquot of the incubation mixture was then diluted 500-fold into a reaction mixture containing buffer mixture, NADPH (100 μM), and DHF (20 μM). Recovery of enzyme activity was followed by continuous monitoring at 340 nm.
Provided that the concentration of free inhibitor is not substantially altered by the formation of an enzyme-NADPH-inhibitor complex, the progress curve for the inhibition in the presence of saturating NADPH can be described by Eqn. 1 (as above): P=vst+(v0−vs)(1−exp(−kobst))/kobs • where vs, v0 and kobs represent the steady-state velocity, initial velocity and apparent first-order rate constant, respectively. The apparent first-order rate constant is related to the inhibitor concentration by Eqn. 2, where Ki denotes the dissociation constants for the initial binding of MTX to the enzyme-NADPH complex. [formula]

bovine liver DHFR = target: T1, bovine liver DHFR (Bos taurus, UniProt P00376); assay: Kinetic analysis of inhibition of bovine liver DHFR; type: biochemical
T1 construct: from tissue; host or cells: bovine liver
T1 sequence (P00376 1-187): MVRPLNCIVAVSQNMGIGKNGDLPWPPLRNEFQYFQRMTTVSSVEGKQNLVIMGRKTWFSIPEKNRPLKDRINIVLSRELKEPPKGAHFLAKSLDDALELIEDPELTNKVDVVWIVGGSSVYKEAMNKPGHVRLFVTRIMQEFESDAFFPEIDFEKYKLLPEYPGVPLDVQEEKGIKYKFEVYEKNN
Method: The activity of DHFR was determined at 25° C. by following the decrease of NADPH and DHF by absorbance measurements at 340 nm (ε=11,800 M^−1 cm^−1) by using a Perkin-Elmer Lambda-2 spectrophotometer with cuvettes of 1.0 cm light-path.
Experiments were performed at pH 7.58 and 25° C. in a buffer containing 2-(N-morpholino)ethanesulfonic acid (MES, 25 mM), sodium acetate (25 mM), tris(hydroxymethyl)aminomethane (Tris 50 mM), and NaCl (100 mM). To prevent the oxidation of catechins, the reaction mixture contained 1 mM ascorbic acid. The pH of the reaction was measured before and after of the experiment. The assays were started by the addition of enzyme. In the absence of the enzyme, the rate of change of absorbance was negligible. […]
Progress curves for the slow, tight-binding inhibition of bovine liver DHFR by EGCG were determined by continuously monitoring the disappearance of NADPH and DHF after initiation of the reaction by the addition of 3.3 nM enzyme. Reaction mixtures contained buffer, NADPH (100 μM), DHF (20 μM) and EGCG. Assuming that the concentration of free inhibitor is not substantially altered by the formation of an enzyme-NADPH-inhibitor complex, the progress curve for the inhibition in the presence of saturating NADPH is described by Eqn. (1): P=vst+(v0−vs)(1−exp(−k′t))/k′
where vs, v0 and k′ represent the steady-state velocity, initial velocity and apparent first-order rate constant, respectively.
The values of k′ at different EGCG concentrations were obtained by non-linear regression analysis of the progress curves. KI and KI* denote the respective dissociation constants for the initial and equilibrium binding of inhibitors to the enzyme-NADPH complex (FIG. 5).

[1] = target: T2, recombinant human DHFR (rHDHFR) (Homo sapiens, UniProt P00374); assay: Inhibition of human DHFR by tea catechins; type: biochemical
T2 sequence (P00374 1-187): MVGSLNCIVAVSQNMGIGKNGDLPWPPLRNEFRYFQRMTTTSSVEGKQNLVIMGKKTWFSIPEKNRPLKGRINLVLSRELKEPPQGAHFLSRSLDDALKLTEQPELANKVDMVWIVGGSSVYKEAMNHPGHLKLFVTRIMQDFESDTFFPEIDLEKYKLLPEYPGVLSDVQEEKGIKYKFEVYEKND

L1210 cells = assay: EGCG cytotoxicity / growth of L1210 cells; type: cell-based, mouse; conditions: L1210; hypoxanthine-thymidine (HT) medium; EGCG 20 μM
Method: L1210 cells were plated at a density of 10,000 cells/ml in 96-well plates with a “standard folate” RPMI 1640 medium supplemented with 10% FCS. Reversion experiments were carried out in an HT medium and/or by adding 50 μM ascorbic acid (AA). Cell injury was evaluated by a calorimetric assay for mitochondrial function using the MTT test.^29
The effect of different EGCG concentrations on L1210 cell growth after 29 h of treatment at two different folic acid concentrations was determined. The cells were previously adapted over a period of 2-3 days to grow in folate-free RPMI 1640 medium supplemented with 10% dialyzed FCS and 2 mM glutamine. This medium is subsequently referred to as LF (low folate). For the cytotoxicity assay, the cells were grown in LF media supplemented with folic acid (3 μM or 300 nM). Treatments were carried out in triplicate, and each experiment performed at least twice. Cell growth was determined by two different methods, Coulter counter Z2 and hemocytometer (FIG. 7). IC50 values were determined at each folic acid concentration added to the medium.
The growth-inhibitory effects of 10 μM EGCG at various folic acid concentrations were determined at two different time intervals. L1210 cells were cultured in a LF medium supplemented with the corresponding folic acid concentration. The data were obtained by using a Coulter counter and hemocytometer and expressed assuming a zero percentage of growth inhibition for untreated control (FIG. 8). Cells were maintained in the corresponding medium with 100 μg/ml of penicillin and streptomycin at 37° C. in a humid 7.5% CO2, […] environment for all the experiments.

p16 = p16 methylation status in Caco-2 cells; conditions: EGCG 20 μM, 7-days treatment

Sequence of S. maltophilia DHFR (B2FPG1 entry or part of it): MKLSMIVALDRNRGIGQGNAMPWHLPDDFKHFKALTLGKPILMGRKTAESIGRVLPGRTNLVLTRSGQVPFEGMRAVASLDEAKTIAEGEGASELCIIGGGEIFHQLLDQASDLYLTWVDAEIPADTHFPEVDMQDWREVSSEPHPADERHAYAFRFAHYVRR

SMILES: Nc1nc(=O)c2c([nH]1)NCC(CNc1ccc(C(=O)N[C@@H](CCC(=O)O)C(=O)O)cc1)=N2 [DHF, 7,8-dihydrofolate]
- Km (S. maltophilia DHFR; pH 8.0): 1.8 µM

SMILES: O=C(O[C@@H]1Cc2c(O)cc(O)cc2O[C@@H]1c1ccc(O)c(O)c1)c1cc(O)c(O)c(O)c1 [ECG, (−)-epicatechin gallate]
- inhibition of DHFR activity (bovine liver DHFR): potent inhibitor
- k5 (bovine liver DHFR): 0.11 min⁻¹
- k5/k6 (bovine liver DHFR): 7.1 ratio
- k6 (bovine liver DHFR): 0.015 min⁻¹
- Ki (bovine liver DHFR; KI*, equilibrium binding to enzyme-NADPH complex): 0.00655 µM
- Ki (bovine liver DHFR; KI, initial binding to enzyme-NADPH complex, pH 7.58, 25° C.): 0.0513 µM
- inhibition of rHDHFR activity [1]: potent inhibitors

SMILES: Oc1cc(O)c2c(c1)O[C@H](c1cc(O)c(O)c(O)c1)[C@H](O)C2 [EGC, (−)-epigallocatechin, reference compound]
- inhibition of DHFR activity (bovine liver DHFR): did not inhibit
- inhibition of rHDHFR activity [1]: did not inhibit

SMILES: NC(=O)C1=CN([C@@H]2O[C@H](COP(=O)(O)OP(=O)(O)OC[C@H]3O[C@@H](n4cnc5c(N)ncnc54)[C@H](OP(=O)(O)O)[C@@H]3O)[C@@H](O)[C@H]2O)C=CC1 [NADPH]
- Km (S. maltophilia DHFR; pH 8.0): 12 µM

SMILES: CN(Cc1cnc2nc(N)nc(N)c2n1)c1ccc(C(=O)N[C@@H](CCC(=O)O)C(=O)O)cc1 [methotrexate]
- growth inhibition in HT medium (L1210 cells): greatly attenuated
- p16 methylation pattern (p16): reversal of hypermethylation was observed
- Type of inhibition observed (S. maltophilia DHFR; S. maltophilia DHFR): competitive (slow-
- k1 (S. maltophilia DHFR; S. maltophilia DHFR, calculated by using Eqn. 3): 6.17e+07 M⁻¹ s⁻¹
- rate constant k2 (S. maltophilia DHFR; S. maltophilia DHFR, pH 8.0): 0.0011 s⁻¹

SMILES: COc1cc(Cc2cnc(N)nc2N)cc(OC)c1OC [trimethoprim]
- Ki (S. maltophilia DHFR): 4.69 µM
- Type of inhibition observed (S. maltophilia DHFR): competitive (reversible)
- effect of preincubation of the enzyme with inhibitor (S. maltophilia DHFR): did not produce any measurable inhibition
